Laboratory results reported in PMC10532587, “An Investigation of Structure–Activity Relationships and Cell Death Mechanisms of the Marine Alkaloids Discorhabdins in Merkel Cell Carcinoma Cells” (Marine Drugs, 2023).
Where two headings read alike, the source gives them in different places.

How the values were obtained:
HaCaT = assay: Cell survival by CellTiterGlo, control cells; format: cell-based, human; conditions: for IC50: Homo sapiens, HaCaT; for AUC (arbitrary units) HaCaT: area under the dose-response curve, control cells
MCC13 = assay: Cell survival by CellTiterGlo, VN-MCC line MCC13; format: cell-based; conditions: for IC50: CellTiterGlo, normalized to DMSO; for AUC (arbitrary units) MCC13: area under the dose-response curve
MCC26 = assay: Cell survival by CellTiterGlo, VN-MCC line MCC26; format: cell-based; conditions: for IC50: CellTiterGlo, normalized to DMSO; for AUC (arbitrary units) MCC26: area under the dose-response curve
UISO = assay: Cell survival by CellTiterGlo, VN-MCC line UISO; format: cell-based; conditions: for IC50: CellTiterGlo, normalized to DMSO; for AUC (arbitrary units) UISO: area under the dose-response curve
MKL-1 = assay: Cell survival by CellTiterGlo, VP-MCC line MKL-1; format: cell-based; conditions: VP-MCC; for IC50: MKL-1, CellTiterGlo, normalized to DMSO, read-out: IC50 (nM) MKL-1; for AUC (arbitrary units) MKL-1: area under the dose-response curve
Waga = assay: Cell survival by CellTiterGlo, VP-MCC line Waga; format: cell-based; conditions: for IC50: CellTiterGlo, normalized to DMSO; for AUC (arbitrary units) WaGa: area under the dose-response curve
[1] = test system: VN-MCC cell lines (MCC13, MCC26, and UISO); assay: Selectivity VN-MCC versus control cells (average AUC); format: cell-based
Excerpt: (§1) In order to compare responses among all of the discorhabdins and cell lines (98 combinations), dose–response curves were generated using identical discorhabdin dilution series. GraphPad Prism 8 (San Diego, CA, USA) software was utilized to graph dose–response data and to calculate IC50 values and area under the dose–response curves (AUC) along with 95% confidence interval estimates using four-parameter logistic nonlinear regression analysis. For further analysis and comparisons, AUC for each cell line/discorhabdin pair was visualized in a heatmap generated in R version 1.3.1073 (R Core Team (2013). R: A language and environment for statistical computing. R Foundation for Statistical Computing, Vienna, Austria, http://www.R-project.org/ (accessed on 12 January 2023).
(§2) Figure S41: Discorhabdi nselectivity
(§3) Discorhabdin selectivity for VP -MCC and VN- MCCcells was estimated by comparison of activity (average AUC) for each dis corhabdin against VP -MCC (panel A) or VN- MCC (panel B) cell lines compared to control cells . Discorhabdins were sort ed by selectivity from most to least selective. - fold dif fer ence = (av e VN -MCC or VP -MCC AUC/ control AUC). Error bars […]
(§4) (1 picture or pasted object on this page, not shown here)

[2] = test system: VP-MCC cell lines (MKL-1, MKL-2, and Waga); assay: Selectivity VP-MCC versus control cells (average AUC); format: cell-based
Excerpt: as §1, §2, §3, §4

[3] = test system: control (HaCaT) and Merkel cell carcinoma cell lines; assay: Cell survival by CellTiterGlo, all seven cell lines; format: cell-based; conditions: for activity on cell viability, in words: MCC and control cell lines; for IC50: Homo sapiens, HaCaT
Method: (§5) Three methods were employed for assessment of MCC and control cell survival/viability after discorhabdin treatment, two metabolic assays and a cell permeability assay. For all three methods, cells were plated in 384-well plates at 2500 cells/well and treated with various concentrations of discorhabdins for various time periods. CellTiterGlo^TM (Promega, Madison, WI, USA) measures cellular ATP content and was used to estimate potency of discorhabdins in cell viability assays as previously described. Continuous monitoring of metabolic activity was accomplished using a cellular reducing potential luminescence assay, the RealTime-Glo^TM MT Cell Viability Assay (Promega, Madison, WI, USA) according to manufacturer’s instructions. Loss of cell plasma membrane integrity was assessed using a cell-impermeant molecule that becomes fluorescent upon binding DNA [82] in parallel with apoptosis detection per manufacturer’s instructions (RealTimeGlo^TM Annexin V Apoptosis and Necrosis Assay-Promega). Two additional assays of apoptotic cell death were also used. Caspase activation in response to treatment of MCC cells by discorhabdins or bortezomib (as a positive control) was measured using the CaspaseGlo® 3/7 Assay (Promega, Madison, WI, USA) according to the manufacturer’s instructions at multiple time points. Inhibition of apoptotic cell death was investigated using pre-treatment of cells with for 1 h with the pan-caspase inhibitor Z-VAD-FMK (Enzo Life Sciences, Farmingdale, NY, USA) followed by treatment with discorhabdins or bortezomib and estimation of cell viability as outlined above.
as §1
Figure S39: Activity of discorhabdins against M CC cell lines.
The indicated discorh abd ins were ass essed for th eir ability to affect surviv al of control (H aCaT) and Merkel cell carcino ma cell lines (VN-MCC: MCC13, MCC26, UISO and VP -MCC: MKL-1, MKL-2, Wag a). Cells were plat ed at 2500 cells/well and compounds the next day. Cell survival was estimated by CellTiterGlo (normalized to untreated (DMSO) cells on the same plate). Structures w ere o btained from the supplier and/or the PubChem database or as described in the text. Number in bold in ( ) refers to structures in Figure 1 in the text. Curves were plotted and IC50 values and 95% confidence interval calculated by GraphPad software. […]

MCC cell lines = assay: Cell survival by CellTiterGlo, MCC cell lines together; format: cell-based; conditions: average over MCC cell lines
Method: as §5, §1

MKL-2 = assay: Cell survival by CellTiterGlo, VP-MCC line MKL-2; format: cell-based; conditions: for IC50: CellTiterGlo, normalized to DMSO; for AUC (arbitrary units) MKL-2: area under the dose-response curve
[4] = control skin cell line, CellTiterGlo, normalized to DMSO, read-out: IC50 (nM) HaCaT
[5] = read-out: IC50 for control cells

Structure (SMILES)	IC50 (HaCaT; [4])	AUC (arbitrary units) HaCaT (HaCaT)	IC50 (MCC13)	AUC (arbitrary units) MCC13 (MCC13)	IC50 (MCC26)	AUC (arbitrary units) MCC26 (MCC26)	IC50 (UISO)	AUC (arbitrary units) UISO (UISO)	IC50 (MKL-1)	AUC (arbitrary units) MKL-1 (MKL-1)	IC50 (Waga)	AUC (arbitrary units) WaGa (Waga)	increased activity against VP-MCC compared to the control [2]	activity on cell viability, in words [3]	averaged potency (IC50) across all MCC cell lines tested (MCC cell lines)	IC50 (MKL-2)	AUC (arbitrary units) MKL-2 (MKL-2)	also measured
Cc1[nH]c2c3c1CCN=C3C1=C(NCCC13C=C(Br)C(=O)C(Br)=C3)C2=O [Compound 18, 14-methyldiscorhabdin C]	5380 nM	584.7 arbitrary units	1450 nM	159.8 arbitrary units	3060 nM	329.4 arbitrary units	670 nM	74.19 arbitrary units	175 nM	20.95 arbitrary units	430 nM	51.75 arbitrary units	> 10 fold					increased activity against VN-MCC compared to control cells (fold difference) [1]: > 3 fold
CSC1=CC(=O)C(Br)=C[C@]12C=CNC1=C2C2=NCCc3c[nH]c(c32)C1=O [Compound 8, (+)-(6S) N-13-demethyldiscorhabdin U]	1010 nM	123.3 arbitrary units	299 nM	48.65 arbitrary units	749 nM	80.16 arbitrary units	251 nM	32.84 arbitrary units	22.7 nM	5.221 arbitrary units	86.9 nM	14.83 arbitrary units	> 10 fold	one of the most active compounds tested	sub-micromolar			IC50 (HaCaT; [5]): ≤ 1000 nM
O=C1C(Br)=CC2(C=C1Br)CCNC1=C2C2=NCCc3c(Br)[nH]c(c32)C1=O [Compound 19, 14-bromodiscorhabdin C]	3740 nM	441.7 arbitrary units	511 nM	90.22 arbitrary units	893 nM	120.6 arbitrary units	412 nM	88.25 arbitrary units	37.8 nM	7.189 arbitrary units	249 nM	50.51 arbitrary units	> 10 fold		sub-micromolar			increased activity against VN-MCC compared to control cells (fold difference) [1]: > 3 fold
O=C1C=C[C@@]23C[C@@H](NC4=C2C2=NCCc5c[nH]c(c52)C4=O)SC3=C1 [Compound 4, (+)-(6S,8S) discorhabdin G*/I]	2450 nM	267.7 arbitrary units	940 nM	124.8 arbitrary units	1280 nM	140 arbitrary units	921 nM	121.7 arbitrary units	481 nM	54.17 arbitrary units	859 nM	105.3 arbitrary units			sub-micromolar	879 nM	108.8 arbitrary units	
O=C1C=C(SSC2=CC(=O)C(Br)=C[C@]23C=CNC2=C3C3=NCCc4c[nH]c(c43)C2=O)[C@@]2(C=CNC3=C2C2=NCCc4c[nH]c(c42)C3=O)C=C1Br [Compound 10, (−)-(6S,6′S) discorhabdin W]	4860 nM	538.3 arbitrary units	1380 nM	184.2 arbitrary units	2560 nM	290.1 arbitrary units	1240 nM	162.4 arbitrary units	136 nM	18.4 arbitrary units	307 nM	40.16 arbitrary units	> 10 fold			387 nM	55.04 arbitrary units	
Cn1cnc(S[C@H]2[C@H]3C(=O)C=C4S[C@H]5C[C@]42C2=C(N5)C(=O)c4[nH]cc5c4C2=[N+]3CC5)c1C[C@H](N)C(=O)O (relative stereo) [Compound 14, (−)-(1R,2R,6R,8S,7′S*) discorhabdin H]		992.5 arbitrary units		950.6 arbitrary units		947 arbitrary units		952.3 arbitrary units		901.7 arbitrary units		930 arbitrary units					946.5 arbitrary units	IC50 ([3]; CellTiterGlo, 10 µM highest concentration tested, read-out: IC50, all cell lines): > 10000 nM; IC50 ([3]; essentially inactive compounds, read-out: average IC50 against all the cell lines): > 5000 nM
O=C1C=C[C@]2(C=C1Br)CCNC1=C2C2=NCCc3c[nH]c(c32)C1=O [Compound 22, (+)-(6S)-discorhabdin E]	3010 nM	328.3 arbitrary units	888 nM	106.9 arbitrary units	2000 nM	226.2 arbitrary units	459 nM	53.3 arbitrary units	125 nM	14.16 arbitrary units	332 nM	36.75 arbitrary units	> 10 fold		sub-micromolar			
O=C1C=C2SC3CC2(C=C1Br)C1=C(N3)C(=O)c2[nH]cc3c2C1=NCC3 (single isomer, unassigned; (-)) [(-)B]		114.3 arbitrary units		41.45 arbitrary units		80.18 arbitrary units		33.26 arbitrary units		1.929 arbitrary units		5.814 arbitrary units		comparable activity against MCC and control cell lines			9.451 arbitrary units	
O=C1CC2SC3CC2(C=C1Br)C1=C(N3)C(=O)c2[nH]cc3c2C1=NCC3 (single isomer, unassigned; (+)) [Compound 1]	273 nM	29.87 arbitrary units	64 nM	8.589 arbitrary units	197 nM	88.19 arbitrary units	54 nM	7.172 arbitrary units	29 nM	4.944 arbitrary units	57 nM	6.873 arbitrary units		most generally toxic compound tested	sub-micromolar	48 nM	6.99 arbitrary units	IC50 (HaCaT; [5]): ≤ 1000 nM
